A short description of assay [1]: inhibitors of intracellular T. cruzi replication, confirmation, NIH3T3 host cells, beta-gal luminescence (AID 2044).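 Note: intracellular parasites grown in NIH/3T3 mouse fibroblasts as host cells; luminescent beta-galactosidase reporter signal from transgenic T. cruzi replicating inside host cells; inhibitors lower the luminescence signal.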 The assay is classed as functional, cell-based.
Assay [2] can be described thus: cytotoxicity toward NIH3T3 fibroblasts, dose response, counter-screen, cell-based, ATP luminescence, mouse fibroblasts (AID 2010).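 Note: cells exposed to compound for about 90 hours before reading.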 It is filed as functional. On the technique in general: A counterscreen serves to expose hits that act by an unwanted route or on another target.
The nature of assay [3]: Luminescence Cell-Based Dose Retest to Confirm Inhibitors of Cancer Stem Cells. [Related pubchem assays (depositor defined):AID2717, AID2721]. It is filed as functional. As to conditions: Homo sapiens.
Assay [4] concerns the target T1, Heat shock factor protein 1 (Mus musculus, UniProt P38532).
T1 sequence (P38532 whole entry): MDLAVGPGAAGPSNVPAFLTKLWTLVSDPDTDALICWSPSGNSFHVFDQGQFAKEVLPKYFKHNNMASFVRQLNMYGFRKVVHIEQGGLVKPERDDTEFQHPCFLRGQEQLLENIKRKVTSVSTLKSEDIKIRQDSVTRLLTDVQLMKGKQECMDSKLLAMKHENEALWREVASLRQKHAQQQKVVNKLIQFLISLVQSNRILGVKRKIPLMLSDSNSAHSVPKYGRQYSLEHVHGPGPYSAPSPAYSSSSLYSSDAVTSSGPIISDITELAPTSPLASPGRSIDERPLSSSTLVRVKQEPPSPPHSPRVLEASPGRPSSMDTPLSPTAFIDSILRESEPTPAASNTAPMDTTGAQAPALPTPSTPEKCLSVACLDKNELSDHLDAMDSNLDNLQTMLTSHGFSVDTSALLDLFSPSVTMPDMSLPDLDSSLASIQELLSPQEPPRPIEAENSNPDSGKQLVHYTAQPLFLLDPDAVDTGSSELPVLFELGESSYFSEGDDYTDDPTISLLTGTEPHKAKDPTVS
Briefly: inhibition of MG132-induced HSE-luciferase signal, confirmation, cell-based, NIH3T3, luminescence, dose retest (AID 2382).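 Note: NIH3T3 fibroblasts with HSF1-driven luciferase reporter stressed by proteasome inhibitor MG132; luminescence from HSF1-driven luciferase expression after 8 hours of MG132 stress.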 It is filed as functional.

Another assay has as its target Cytochrome P450 2D6 (Homo sapiens, UniProt P10635).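 Note: CYP2D6 member of a cytochrome P450 panel assay.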
Another assay concerns INS1. Put plainly: beta cell apoptosis inhibitors, cytokine rescue, dose response, luminescence, retest (AID 449756).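 Note: cell death triggered by IL-1 beta plus TNF-alpha plus IFN-gamma mixture; protective hits raise ATP signal compared with cytokine alone wells.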 The assay is classed as functional, cell-based. The note with it: Rattus norvegicus.
In the next assay the test system is Streptococcus. Briefly: Group A Streptococcus viability loss, dose response, counter-screen for streptokinase expression inhibitor project, luminescence, BacTiterGlo (AID 1915).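 Note: potency for reduction of bacterial viability or growth.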 It is filed as functional, organism-based.
In another assay the target is T2, Streptokinase A (Streptococcus pyogenes serotype M1, UniProt P10520).
T2 sequence (P10520 whole entry): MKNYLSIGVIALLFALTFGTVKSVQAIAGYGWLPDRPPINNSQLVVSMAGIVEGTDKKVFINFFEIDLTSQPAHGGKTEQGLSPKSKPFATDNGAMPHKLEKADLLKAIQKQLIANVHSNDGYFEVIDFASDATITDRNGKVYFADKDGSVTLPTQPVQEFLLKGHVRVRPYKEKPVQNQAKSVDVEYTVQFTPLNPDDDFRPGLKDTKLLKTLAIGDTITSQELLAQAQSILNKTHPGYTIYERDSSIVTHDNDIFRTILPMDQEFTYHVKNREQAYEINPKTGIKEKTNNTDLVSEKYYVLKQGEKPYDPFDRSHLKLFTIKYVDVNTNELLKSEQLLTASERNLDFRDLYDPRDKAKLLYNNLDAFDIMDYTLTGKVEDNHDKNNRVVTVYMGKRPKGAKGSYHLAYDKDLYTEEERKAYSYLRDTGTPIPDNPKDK
Put plainly: S. pyogenes streptokinase expression inhibitors, potency, dose response, plasminogen activation absorbance, OD405 (AID 1914).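 Note: secreted streptokinase activity via plasminogen activation per viability signal from cell pellet.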 It is filed as functional, Streptococcus pyogenes M1 GAS.

For assay [5], the system named is Streptococcus sp. 'group A'. Briefly: growth inhibition of control SK(-) GAS strain, dose response, counter-screen for streptokinase expression inhibitor project, luminescence, kanamycin, BacTiterGlo, confirmation (AID 1900). It is filed as functional, organism-based.
The nature of assay [6]: inhibitors of firefly luciferase expression or activity, dose response, H4 neuroglioma cells, luminescence (AID 1990). The assay is classed as functional, cell-based.
A short description of assay [7]: Luminescence Cell-Based Dose Response HTS to Identify Inhibitors of 5'UTR Stem-Loop Driven Prion Protein mRNA Translation in H4 Neuroglioblastoma Cells. [Related pubchem assays: 1827 (Project Summary), 1813 (Primary HTS)]. It is filed as functional.

Activity calls are given as the source filed them. Cut-off read from the data, not from the text of the source, for most assays here: actives have a measured EC50 and inactives only a lower limit.

Chain of Cytochrome P450 2D6 (P10635 whole entry): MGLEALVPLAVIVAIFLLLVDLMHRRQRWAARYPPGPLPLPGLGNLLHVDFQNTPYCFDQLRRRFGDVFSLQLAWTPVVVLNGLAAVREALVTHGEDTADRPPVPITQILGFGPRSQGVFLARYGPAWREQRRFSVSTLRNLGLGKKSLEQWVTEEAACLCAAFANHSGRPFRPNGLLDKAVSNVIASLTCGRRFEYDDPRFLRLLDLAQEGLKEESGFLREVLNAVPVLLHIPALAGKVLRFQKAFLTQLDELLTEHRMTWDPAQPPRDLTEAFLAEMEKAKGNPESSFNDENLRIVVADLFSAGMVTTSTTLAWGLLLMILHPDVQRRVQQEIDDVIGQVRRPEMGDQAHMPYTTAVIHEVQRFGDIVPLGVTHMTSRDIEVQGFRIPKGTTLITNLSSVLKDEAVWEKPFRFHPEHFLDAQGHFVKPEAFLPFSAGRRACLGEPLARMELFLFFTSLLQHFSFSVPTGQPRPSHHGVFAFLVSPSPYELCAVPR

As usually defined, the EC50 is the concentration at which the effect is half-maximal. Regarding `C/C(=N\Nc1nc(C(C)(C)C)cs1)c1ccccc1`, the values for the 50% effective concentration (EC50) in [1] and in assay [2] were 0.673 µM (active) and > 30 µM (not active), respectively.
The matching figures for `Fc1ccc(Nc2nc(N/N=C/c3ccco3)nc(N3CCCCC3)n2)cc1`: 2.88 µM (active) and 9.91 µM (active).
The term AC50 denotes the concentration giving half of the maximal activity seen. For `COc1cccc(Nc2nc(-c3ccccc3)nc3ccccc23)c1`, the half-maximal activity concentration (AC50) in assay [3] was 5.53 µM (active).
On to `COc1cc(NC(=O)CN(C)S(=O)(=O)c2ccc(-c3ccc(O)nn3)s2)cc(OC)c1`, for which, in assay [4], the EC50 is given as > 195 µM (not active).
Regarding `c1csc(CN2CC3(CCNCC3)C2)n1`, on Cytochrome P450 2D6, the half-maximal activity concentration (AC50) was 39.8 µM (inconclusive).
On to `O=C(CSc1nnc(SCc2cccc3ccccc23)s1)c1ccc2c(c1)OCO2`, for which, on Cytochrome P450 2D6, the AC50 was 7.94 µM (inconclusive).
With `COc1cccc(/C=N/NC(=O)CNC(=O)c2cccs2)c1O`, the AC50 in the assay on INS1 was 7.39 µM (active).
As for `CCC1Oc2ccc(C)cc2N(CC(=O)N(Cc2cccnc2)Cc2ccc(C)o2)C1=O` (stereo not given), the concentration for a half-maximal effect (EC50) in assay [1] was 0.166 µM (active); in assay [2], > 30 µM (not active).
Turning to `Cc1ccc(C(=O)N2CCOCC2)cc1Cl`, the EC50 (in the assay with Streptococcus; at Streptokinase A; in assay [5]) was > 150 µM (not active) each time.
On to `Cc1ccccc1NC(S)=NCC1CCN(C(C)c2ccccc2)C1` (stereo not given), for which the EC50 in assay [1] is 1.1 µM (active); in assay [2] it was > 60 µM (not active).
`CCOC(=O)N1CCN(C(=O)C(CC)n2nc(C)c3sc4ccccc4c3c2=O)CC1` (stereo not given): the half-maximal activity concentration (AC50) on Cytochrome P450 2D6 was 39.8 µM (inconclusive).
On the same count and under the same terms, next, `CN1C(=O)C(=Cc2ccc(N3CCCCCC3)o2)C(=O)N(C)C1=S`: 20 µM (inconclusive).
For the molecule `O=C(/C=C/c1ccc(F)cc1)c1ccccc1Br`, the half-maximal activity concentration (AC50) in assay [3] is 3.87 µM (active).
As to `CC(/C=C/c1ccc(N(C)C)cc1)=N\NC1=NC(=O)CC(C(=O)Nc2ccccc2)S1` (stereo not given), the values for the EC50 (in the assay on Streptococcus; on Streptokinase A; in [5]) were 9.04 µM (active), > 150 µM (not active) and 2.94 µM (active), respectively.
Regarding `Cc1cccc(NC(=O)c2ccc([N+](=O)[O-])s2)c1C`, in the assay with INS1, the AC50 was 12 µM (active). The EC50 in assay [1] was 0.691 µM (active); in assay [2] it was > 60 µM (not active).
In the case of `CCOc1ccc(CN2CCC(n3nccc3NC(=O)c3ccccc3OC)CC2)cc1`, the EC50 in assay [1] was 0.997 µM (active); in assay [2] it was > 60 µM (not active).
`COc1ccc(O)c(C(=O)c2cnc3nc4ccccc4n3c2)c1`: the AC50 in the assay on INS1 was 1.23 µM (active).
`O=C(c1ccco1)N(CCCN1CCOCC1)c1nc(-c2ccc(F)cc2)cs1`: the EC50 in assay [1] was 1.28 µM (active); in [2] it was 30.5 µM (active).
Regarding `Cc1cc(C)c2cc(CN(CCO)C(=O)Nc3ccc(Cl)cc3)c(O)nc2c1`, the concentration giving a half-maximal response (EC50) was 15.8 µM (active) in [6] and 33.3 µM (active) in assay [7].
Consider `CCOC(=O)c1cccc(-[n+]2c(-c3ccccc3)cc(-c3ccccc3)cc2-c2ccccc2)c1.[O-][Cl+3]([O-])([O-])[O-]`, for which, in the assay with INS1, the AC50 was 2.68 µM (active).
Turning to `CCCNC(=O)CSc1nc(-c2cccs2)cc(C(F)(F)F)n1`, the half-maximal activity concentration (AC50) at Cytochrome P450 2D6 is 3.16 µM (inconclusive).
As to `O=C(/C=C/c1ccc(F)cc1)c1cc(Br)ccc1O`, in assay [3], the AC50 was 13.1 µM (active).
`CC1CCN(c2nc(-c3ccc(F)cc3)cc(C(F)(F)F)n2)CC1`: the EC50 in the assay on Streptococcus was 17.5 µM (active); at Streptokinase A, 4.61 µM (active); in assay [5], 11.6 µM (active).
With `C[C@@H](N)[C@@H](C)Cc1ccccc1`, at Cytochrome P450 2D6, the AC50 was 3.98 µM (inconclusive).
On to `O=C(c1ccccc1)c1ccc(OCCCN2CCCC2)cc1`, for which the EC50 in assay [1] is 0.889 µM (active); in assay [2], > 60 µM (not active).
The matching figures for `CCCCn1c(N)c(N(CCC(C)C)C(=O)c2ccc([N+](=O)[O-])s2)c(=O)[nH]c1=O`: 0.997 µM (active) and > 60 µM (not active).
As to `C[N+]1(C)[C@@H]2CC[C@H]1CC(OC(=O)c1c[nH]c3ccccc13)C2` (stereo not given in full), the half-maximal activity concentration (AC50) at Cytochrome P450 2D6 was 31.6 µM (inconclusive).
In the case of `Cc1ccc(CSCCNS(=O)(=O)c2ccc([N+](=O)[O-])cc2)cc1`, the EC50 is 0.939 µM (active) in [1] and > 60 µM (not active) in [2].
For `COc1ccc(C(=O)N/N=C(\C)Cn2cnc([N+](=O)[O-])n2)cc1` the same measures were 1.03 µM (active) and > 60 µM (not active).
`CSc1nnc2ccc(-c3ccc(C)cc3)nn12`: the half-maximal effective concentration (EC50) (in the assay with Streptococcus; at Streptokinase A; in assay [5]) was > 150 µM (not active) throughout.
As for `Cc1ccc(O)c(C(=O)CC(=O)c2ccc(C(C)(C)C)cc2)c1`, the concentration giving a half-maximal response (EC50) in the assay with Streptococcus was 3.66 µM (active); in [5], 1.63 µM (active).
With `CCCCCCSc1cc(-c2nc3cnccn3c2NCc2ccccc2)ccc1OC`, the EC50 in the assay with Streptococcus is 12.9 µM (active); on Streptokinase A it was 16.7 µM (active); in assay [5], 4.3 µM (active).
On to `Cc1c(CCOC(=O)c2cc([N+](=O)[O-])cc([N+](=O)[O-])c2)sc[n+]1CC(=O)c1ccccc1`, for which the figures for the EC50 in [1] and in assay [2] were 1.97 µM (active) and > 60 µM (not active), respectively.
In the case of `CCOC(=O)c1ccc(NC(=O)c2[nH]cnc2C(=O)NCCCCNC(=O)c2nc[nH]c2C(=O)Nc2ccc(C(=O)OCC)cc2)cc1`, in assay [3], the concentration at half-maximal activity (AC50) is 2.51 µM (active).
For `CC(C)C(=O)N1CCN(c2ccccc2NC(=O)COc2ccc(C3CCCCC3)cc2)CC1`, the half-maximal effective concentration (EC50) with Streptococcus is > 150 µM (not active); on Streptokinase A, 18.9 µM (inconclusive); in assay [5], 15.8 µM (active).
As to `CC(C)(C)NC(=O)CSC(=Nc1ccc(F)cc1)NC#N`, the concentration at half-maximal activity (AC50) at Cytochrome P450 2D6 was 25.1 µM (inconclusive).
Regarding `COc1ccc(NC(=O)c2ccc3c(c2)NC(=O)CS3)cc1S(=O)(=O)Nc1ccc(Br)cc1`, the concentration for a half-maximal effect (EC50) in the assay with Streptococcus was 26.3 µM (active); on Streptokinase A, > 150 µM (not active); in [5] it was 4.17 µM (active).
Take `CCN(CCCNC(=O)CCCOc1cc(=O)n(C)c2ccccc12)Cc1ccccc1`: the 50% effective concentration (EC50) in assay [1] was 0.281 µM (active); in [2], > 60 µM (not active).
Regarding `COC(=O)c1ccccc1NC(=O)c1cc2nc(C3CC3)cc(C(F)(F)F)n2n1`, on Cytochrome P450 2D6, the AC50 was 3.16 µM (inconclusive).
In the case of `O=C(NCC(c1cccnc1)N1CCN(c2ccccc2F)CC1)Oc1ccccc1` (stereo not given), the figures for the EC50 in [1] and in assay [2] were 0.401 µM (active) and > 60 µM (not active), respectively.
The matching figures for `COC(=O)c1[nH]c2cc(C)ccc2c1NC(=O)CN1CCCc2ccccc21`: 0.99 µM (active) and > 60 µM (not active).
For `CC(=O)NCc1ccc(C(=O)CCl)s1` the same measures were 3.21 µM (active) and 3.9 µM (active).
On to `CC(C)(C)c1ccc(Oc2cccc(C3CC(=O)C(C4NCCc5ccccc54)C(=O)C3n3cncn3)c2)cc1` (stereo not given), for which the 50% effective concentration (EC50) is > 150 µM (not active) with Streptococcus, > 150 µM (not active) at Streptokinase A and 71.1 µM (active) in assay [5].
With `COc1ccc(S(=O)(=O)NCC(c2cccnc2)N2CCN(Cc3ccccc3)CC2)cc1C` (stereo not given), the results for the EC50 in [1] and in [2] were 0.678 µM (active) and > 60 µM (not active), respectively.
For the molecule `COc1ccccc1CN1CN(S(=O)(=O)c2ccccc2)c2nc3ccccc3nc21`, the half-maximal effective concentration (EC50) is > 150 µM (not active) with Streptococcus, 55.1 µM (active) at Streptokinase A and 47.6 µM (active) in assay [5].
Consider `O=C(Nc1cccnc1)c1ccc([N+](=O)[O-])s1`, for which, in the assay with INS1, the AC50 is 7.27 µM (active).
Take `CCN1CCN(C(S)=Nc2sc(C)c(-c3ccccc3)c2C(=O)OC)CC1`: the AC50 in assay [3] is 3.65 µM (active).

Source of the values: ChEMBL document CHEMBL1201862, “PubChem BioAssay data set” (2004).
